Measured values as given in patent US4820695A, “C-20-dihydro-deoxy-(cyclic amino)-derivatives of macrolide antibiotics” (priority 1987, dated 1989).
≈ marks a conversion by molar mass, not a printed value. Where “and” joins values, the source holds several entries; their conditions need not be identical. Identical values can stand only once. Like-named read-outs stand apart in the source and are kept apart here.

What was measured:
Escherichia coli EC14 = experiment: MIC, standard agar-dilution assay (Table IX); format: cell-based; conditions: read-out: MIC
Pasteurella multocida [1] = experiment: Pasteurella infection in one-day-old chicks, medicated drinking water (Table XIII); format: in vivo; conditions: Administered in the available drinking water at 2 g/gal
How it was run: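 One-day-old chicks were challenged subcutaneously with 0.1 ml of a 10^-4 dilution of a 20-hour tryptose broth culture of avian P. multocida. Compound was given in drinking water at 2 g/gal, available from 4 to 20 hours before challenge and throughout the 3-day test period.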

[2] = test system: Haemophilus influenzae 76; experiment: MIC, standard agar-dilution assay (Table IX); format: cell-based; conditions: Haemophilus influenzae 76, Ampicillin-resistant strain, read-out: MIC
Staphyloccus aureus X1.1 = experiment: MIC, standard agar-dilution assay (Table IX); format: cell-based, Staphylococcus aureus; conditions: Staphylococcus aureus, read-out: MIC
[3] = test system: Streptococcus Group D X66; experiment: MIC, standard agar-dilution assay (Table IX); format: cell-based; conditions: read-out: MIC
[4] = test system: Streptococcus pyogenes C203; experiment: ED50 in mice experimentally infected with S. pyogenes C203 (Table XI); format: in vivo; conditions: Streptococcus pyogenes, doses given 1 and 4 hours postinfection, read-out: ED50
How it was run: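 Mice infected with S. pyogenes C203 received two doses of compound, 1 and 4 h post-infection. ED50 is the dose in mg/kg (per dose, ×2) protecting 50% of animals.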

[5] = test system: Streptococcus Group D 2041; experiment: MIC, standard agar-dilution assay (Table IX); format: cell-based; conditions: GROUPD2041, read-out: MIC
[6] = test system: Streptococcus pyogenes C203; experiment: MIC, standard agar-dilution assay (Table IX); format: cell-based; conditions: read-out: MIC
Klebsiella X26 = experiment: MIC, standard agar-dilution assay (Table IX); format: cell-based; conditions: read-out: MIC
[7] = test system: Staphylococcus aureus V41; experiment: MIC, standard agar-dilution assay (Table IX); format: cell-based; conditions: Staphylococcus aureus V41, Penicillin-resistant strain, read-out: MIC
[8] = test system: Haemophilus influenzae C.L.; experiment: MIC, standard agar-dilution assay (Table IX); format: cell-based; conditions: Ampicillin-sensitive strain, read-out: MIC
[9] = Blood and tissue levels after a single injection; format: in vivo
Excerpt: A special advantage of this invention is that certain of the compounds are effective when administered as a single injection.

Escherichia coli TEM = experiment: MIC, standard agar-dilution assay (Table IX); format: cell-based; conditions: read-out: MIC
[10] = test system: Streptococcus pneumoniae Park I; experiment: MIC, standard agar-dilution assay (Table IX); format: cell-based; conditions: Streptococcus pneumoniae Park I; agar-dilution; read-out: MIC
Pasteurella multocida [11] = experiment: Pasteurella infection in one-day-old chicks, subcutaneous administration (Table XII); format: in vivo; conditions: Administered subcutaneously, 30 mg/kg × 2, 1 and 4 hours post-challenge
How it was run: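 One-day-old chicks were challenged subcutaneously with 0.1 ml of a 10^-4 dilution of a 20-h tryptose broth culture of avian P. multocida. Compounds were then given by subcutaneous injection at 30 mg/kg, at 1 and 4 hours post-challenge.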

[12] = test system: Staphylococcus aureus X400; experiment: MIC, standard agar-dilution assay (Table IX); format: cell-based; conditions: Staphylococcus aureus X400, Methicillin-resistant strain, read-out: MIC
[13] = test system: Pasteurella multocida 60A; experiment: MIC, broth-dilution microtiter test (Table X); format: cell-based; conditions: Avian isolate, read-out: MIC
Excerpt: (§1) The MIC's in Table X were obtained using conventional broth-dilution microtiter tests.

[14] = test system: Pasteurella multocida 17E; experiment: MIC, broth-dilution microtiter test (Table X); format: cell-based; conditions: Bovine isolate, read-out: MIC
Excerpt: as §1

Streptococcus sp. 19F = experiment: MIC, broth-dilution microtiter test (Table X); format: cell-based; conditions: read-out: MIC
Excerpt: as §1

Mycoplasma hyorhinis 29E = experiment: MIC, broth-dilution microtiter test (Table X); format: cell-based; conditions: read-out: MIC
Excerpt: as §1

[15] = test system: Mycoplasma gallisepticum 29C; experiment: MIC, broth-dilution microtiter test (Table X); format: cell-based; conditions: Mycoplasmoides gallisepticum, read-out: MIC
Excerpt: as §1

Mycoplasma synoviae 40A = experiment: MIC, broth-dilution microtiter test (Table X); format: cell-based; conditions: Mycoplasmopsis synoviae, read-out: MIC
Excerpt: as §1

[16] = test system: Staphylococcus aureus 19C; experiment: MIC, broth-dilution microtiter test (Table X); format: cell-based
Excerpt: as §1

[17] = test system: Pasteurella hemolytica 22C; experiment: MIC, broth-dilution microtiter test (Table X); format: cell-based; conditions: read-out: MIC
Excerpt: as §1

[18] = test system: Mycoplasma hyopneumoniae S5972; experiment: MIC, broth-dilution microtiter test (Table X); format: cell-based; conditions: Mesomycoplasma hyopneumoniae, read-out: MIC
Excerpt: as §1

[19] = test system: Staphylococcus epidermidis 222; experiment: MIC, standard agar-dilution assay (Table IX); format: cell-based; conditions: read-out: MIC
[20] = test system: Staphylococcus epidermidis EPI1; experiment: MIC, standard agar-dilution assay (Table IX); format: cell-based; conditions: Staphylococcus epidermidis EPI1; agar-dilution; read-out: MIC
[21] = test system: Staphylococcus aureus S13E; experiment: MIC, standard agar-dilution assay (Table IX); format: cell-based; conditions: Staphylococcus aureus, S13E
Escherichia coli N10 = experiment: MIC, standard agar-dilution assay (Table IX); format: cell-based; conditions: read-out: MIC
Group D strain 9960 = experiment: MIC, standard agar-dilution assay (Table IX); format: cell-based, Streptococcus Group D; conditions: tested using predecessor Group D strain 9960
Staphylococcus aureus = experiment: MIC, broth-dilution microtiter test (Table X); format: cell-based; conditions: read-out: MIC
Excerpt: as §1

Row | SMILES | MIC (Escherichia coli EC14) | Number of Deaths/Number Treated (Pasteurella multocida [1]) | MIC [2] | MIC (Staphyloccus aureus X1.1) | MIC [3] | ED50 ([4]; C203, Oral) | ED50 ([4]; C203, sc, Subcutaneous) | MIC [6] | MIC (Klebsiella X26) | MIC [7] | MIC [8] | MIC (Escherichia coli TEM) | MIC [10] | Number of Deaths/Number Treated (Pasteurella multocida [11]) | MIC [12] | MIC [13] | MIC [14] | MIC (Streptococcus sp. 19F) | MIC (Mycoplasma hyorhinis 29E) | MIC [15] | also measured
1 | CCC1OC(=O)CC(O)C(C)C(OC2OC(C)C(O)C(N(C)C)C2O)C(CCN2C[C@H](C)C[C@H](C)C2)CC(C)C(=O)C=CC(C)=CC1COC1OC(C)C(O)C(OC)C1OC (stereo partly drawn) [Compound D34, 20-DH-DO-20-(cis-3,5-dimethylpiperidine-1-yl)desmycosin] | 128 µg/mL (≈ 147 µM) | 3/10 and 0/10 and 1/10 and 6/10 | 4 µg/mL (≈ 4.6 µM) | 1 µg/mL (≈ 1.15 µM) | 4 µg/mL (≈ 4.6 µM) | 7.98 mg/kg | < 0.625 mg/kg | 0.5 µg/mL (≈ 0.575 µM) | 64 µg/mL (≈ 73.6 µM) | 1 µg/mL (≈ 1.15 µM) | 16 µg/mL (≈ 18.4 µM) | 32 µg/mL (≈ 36.8 µM) | 2 µg/mL (≈ 2.3 µM) | 3/10 | 1 µg/mL (≈ 1.15 µM) | 12.5 µg/mL (≈ 14.4 µM) | 12.5 µg/mL (≈ 14.4 µM) | 3.12 µg/mL (≈ 3.59 µM) | 12.5 µg/mL (≈ 14.4 µM) | 0.195 µg/mL (≈ 0.224 µM) | MIC [5]: 8 µg/mL (≈ 9.2 µM); measurable blood and tissue levels of the drug [9]: prolonged measurable blood and tissue levels of the drug for as long as seven days; MIC (Mycoplasma synoviae 40A): 0.78 µg/mL (≈ 0.897 µM); MIC [16]: 3.12 µg/mL (≈ 3.59 µM); MIC [17]: 6.25 µg/mL (≈ 7.19 µM); MIC [18]: 0.78 µg/mL (≈ 0.897 µM); MIC [19]: 0.25 µg/mL (≈ 0.288 µM); MIC [20]: 0.5 µg/mL (≈ 0.575 µM); MIC [21]: 0.5 µg/mL (≈ 0.575 µM); MIC (Escherichia coli N10): 128 µg/mL (≈ 147 µM)
2 | CCC1OC(=O)CC(O)C(C)C(OC2OC(C)C(O)C(N(C)C)C2O)C(CCN2CCC(c3ccccc3)CC2)CC(C)C(=O)C=CC(C)=CC1COC1OC(C)C(O)C(OC)C1OC (centres unmarked) [Compound D4, 20-DH-DO-20-(4-Phenylpiperidin-1-yl)desmycosin] | 64 µg/mL (≈ 69.8 µM) | 6/10 | 8 µg/mL (≈ 8.72 µM) | 0.5 µg/mL (≈ 0.545 µM) | 1 µg/mL (≈ 1.09 µM) | 19 mg/kg | 6 mg/kg | 0.25 µg/mL (≈ 0.273 µM) | 32 µg/mL (≈ 34.9 µM) | 0.5 µg/mL (≈ 0.545 µM) | 8 µg/mL (≈ 8.72 µM) | 32 µg/mL (≈ 34.9 µM) | 0.25 µg/mL (≈ 0.273 µM) | 9/10 | 0.5 µg/mL (≈ 0.545 µM) | 6.25 µg/mL (≈ 6.81 µM) | 6.25 µg/mL (≈ 6.81 µM) | 0.09 µg/mL (≈ 0.0981 µM) | 50 µg/mL (≈ 54.5 µM) | 0.39 µg/mL (≈ 0.425 µM) | MIC (Group D strain 9960): 2 µg/mL (≈ 2.18 µM); MIC (Staphylococcus aureus): 0.39 µg/mL (≈ 0.425 µM); MIC (Mycoplasma synoviae 40A): < 0.05 µg/mL; MIC [17]: 6.25 µg/mL (≈ 6.81 µM); MIC [18]: 0.78 µg/mL (≈ 0.85 µM); MIC [19]: 0.25 µg/mL (≈ 0.273 µM); MIC [20]: 0.5 µg/mL (≈ 0.545 µM); MIC [21]: 0.5 µg/mL (≈ 0.545 µM); MIC (Escherichia coli N10): 64 µg/mL (≈ 69.8 µM)
